By EC50 is commonly meant the concentration needed to bring the measured effect to its halfway point.

Data on 20 compounds can be found in patent US20240360081A1, “SULFONAMIDE OREXIN RECEPTOR AGONISTS AND USES THEREOF” (Jazz Pharmaceuticals Ireland Limited, priority 2021, published 2024).

In this test the target is T1, human recombinant OX2 (hOX2) receptor expressed in CHO cells (Homo sapiens, UniProt O43614).
T1 construct: host or cells: CHO cells (hOX2-CHO)
T1 sequence (O43614 1-444): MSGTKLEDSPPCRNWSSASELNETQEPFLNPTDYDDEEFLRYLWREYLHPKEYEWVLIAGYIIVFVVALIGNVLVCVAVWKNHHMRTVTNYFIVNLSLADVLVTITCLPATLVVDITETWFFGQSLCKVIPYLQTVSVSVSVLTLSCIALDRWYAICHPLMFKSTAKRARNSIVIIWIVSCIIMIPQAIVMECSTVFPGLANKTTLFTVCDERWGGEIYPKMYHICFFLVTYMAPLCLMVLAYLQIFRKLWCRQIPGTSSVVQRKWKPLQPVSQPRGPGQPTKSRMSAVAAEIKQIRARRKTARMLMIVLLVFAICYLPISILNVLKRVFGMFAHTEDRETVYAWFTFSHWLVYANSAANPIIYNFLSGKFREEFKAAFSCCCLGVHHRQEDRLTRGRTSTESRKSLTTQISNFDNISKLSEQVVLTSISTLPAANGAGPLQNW
Kind of test: IP-1 accumulation assay (IP-One HTRF) in hOX2-CHO cells. The class given is cell-based. The settings on record: 60 min at 37° C., 11 points CRC, response as % of maximal OX-A response. As to the method:
The accumulation of Inositol-1 Monophosphate (IP-1) was measured using IP-One HTRF® Terbium cryptate based assay (Cisbio) in human recombinant OX1 (hOX1) and at OX2 (hOX2) receptors expressed in CHO cells (DiscoverX) according to the manufacturer's instructions for cells tested in suspension.
hOX1-CHO and hOX2-CHO cells were seeded into white 384-well plates at a density of 20,000 cells/well in Hank's Balanced Salt Solution (HBSS) containing 20 mM HEPES pH 7.4, 50 mM, LiCl and 0.1% and Bovine Serum Albumin (BSA).
Compounds of the present disclosure were tested in a 11 points concentration response curve (CRC) serially diluted in neat DMSO at 200 fold concentrations and added by Echo acoustic liquid handling (Labcyte) to the cells (0.5% DMSO final in the assay). After 60 min of incubation at 37° C. detection reagents, IP1-d2 tracer and anti-IP1-cryptate were diluted in lysis buffer according to the manufacturer's descriptions and added to the cells.
Following 60 min incubation at room temperature, time-resolved fluorescence (HTRF) was measured at 615 nm and 665 nm by Envision Multilabel reader (Perkin Elmer) and the HTRF ratio (A665/A615x104) was calculated.
The IP-1 accumulation response was expressed as percentage of the maximal OX-A response.
Curve fitting and EC50 estimations were carried out using a four-parameter logistic model using XLfit Software. Mean data of EC50 are calculated from at least two independent experiments performed in duplicates.
In the Tables, below Category A corresponds to compounds displaying an […]<100 nM, Category B between 100 nM and 1,000 nM, Category C between 1,000 nM and 10,000 nM and Category D above 10,000 nM.
As for `Cc1cc(C)[n+]([O-])c(C(CNS(C)(=O)=O)CO[C@H]2CC[C@@H](c3ccccc3)CC2)c1` (single isomer, unassigned; isomer 1) [Example 5k, (R or S) 2-[1-methanesulfonamido-3-{[(CIS)-4-phenylcyclohexyl]oxy}propan-2-yl]-4,6-dimethylpyridin-1-ium-1-olate—Isomer 1], the EC50 is less than 0.1 µM.
With `Cc1cc(C(CNS(=O)(=O)CF)CO[C@H]2CC[C@@H](c3cccc(F)c3)CC2)c(=O)n(C)c1` (single isomer, unassigned; isomer 1) [Example 5n, (R or S) N-[2-(1,5-dimethyl-2-oxo-1,2-dihydropyridin-3-yl)-3-{[(CIS)-4-(3-fluorophenyl)cyclohexyl]oxy}propyl]-1-fluoromethanesulfonamide—Isomer 1], the EC50 was less than 0.1 µM.
As for `Cc1cc(C(CNS(=O)(=O)N(C)C)CO[C@H]2CC[C@@H](c3cccc(F)c3)CC2)c(=O)n(C)c1` (single isomer, unassigned; isomer 1) [Example 5r, (R or S) 3-[1-[(dimethylsulfamoyl)amino]-3-{[(CIS)-4-(3-fluorophenyl)cyclohexyl]oxy}propan-2-yl]-1,5-dimethyl-1,2-dihydropyridin-2-one—Isomer 1], the figure is less than 0.1 µM; as for `Cc1cc(C(CNS(C)(=O)=O)CO[C@H]2CC[C@@H](c3cccc(F)c3)CC2)c(=O)n(C(F)F)c1` (single isomer, unassigned; isomer 1) [Example 5y, (R or S) N-[2-[1-(difluoromethyl)-5-methyl-2-oxo-1,2-dihydropyridin-3-yl]-3-{[(CIS)-4-(3-fluorophenyl)cyclohexyl]oxy}propyl]methanesulfonamide—Isomer 1], less than 0.1 µM; as for `CS(=O)(=O)NCC(CO[C@H]1CC[C@@H](c2ccccc2)CC1)n1ccccc1=O` (single isomer, unassigned; isomer 2) [Example 1b, (S or R) N-[2-(2-oxo-1,2-dihydropyridin-1-yl)-3-{[(CIS)-4-phenylcyclo-hexyl]oxy}propyl] methane-sulfonamide- Isomer 2], greater than 10 µM.
As for `Cc1cccn(C(CNS(C)(=O)=O)CO[C@H]2CC[C@@H](c3ccccc3)CC2)c1=O` (single isomer, unassigned; isomer 2) [Example 1e, (S or R) N-[(2R)-2-(3-methyl-2-oxo-1,2-dihydropyridin-1-yl)-3-{[(CIS)-4-phenylcyclo-hexyl]oxy}propyl] methane-sulfonamide- Isomer 2], the figure is 0.1 to 1 µM.
As for `Cc1ccn(C(CNS(C)(=O)=O)CO[C@H]2CC[C@@H](c3ccccc3)CC2)n1` (single isomer, unassigned; isomer 2) [Example 2ac, (S or R) N-[2-(3-methyl-1H-pyrazol-1-yl)-3-{[(CIS)-4-phenylcyclohexyl]oxy}propyl]methanesulfonamide-Isomer 2], the figure is greater than 10 µM; as for `Cc1ccnn1C(CNS(C)(=O)=O)CO[C@H]1CC[C@@H](c2ccccc2)CC1` (single isomer, unassigned; isomer 2) [Example 2ae, (S or R) N-[2-(5-methyl-1H-pyrazol-1-yl)-3-{[(CIS)-4-phenylcyclohexyl]oxy}propyl]methanesulfonamide-Isomer 2], greater than 10 µM; as for `Cc1cc(C)c(=O)n(C(CNS(C)(=O)=O)CO[C@H]2CC[C@@H](c3cccc(F)c3)CC2)c1` (single isomer, unassigned; isomer 2) [Example 2ag, (S or R) N-[2-(3,5-dimethyl-2-oxo-1,2-dihydropyridin-1-yl)-3-{[(CIS)-4-(3-fluorophenyl)cyclohexyl]oxy}propyl]methanesulfonamide-Isomer 2], 1 to 10 µM.
In the case of `Cc1cc(Cl)cn(C(CNS(C)(=O)=O)CO[C@H]2CC[C@@H](c3cccc(F)c3)CC2)c1=O` (single isomer, unassigned; isomer 2) [Example 2ai, (S or R) N-[2-(5-chloro-3-methyl-2-oxo-1,2-dihydropyridin-1-yl)-3-{[(CIS)-4-(3-fluorophenyl)cyclohexyl]oxy}propyl]methanesulfonamide-Isomer 2], the EC50 lay in the range of 1 to 10 µM.
The value for `Cc1cc(C)c(=O)n(C(CNS(=O)(=O)C2CC2)CO[C@H]2CC[C@@H](c3cccc(F)c3)CC2)c1` (single isomer, unassigned; isomer 2) [Example 2an, (S or R) N-[2-(3,5-dimethyl-2-oxo-1,2-dihydropyridin-1-yl)-3-{[(CIS)-4-(3-fluorophenyl)cyclohexyl]oxy}propyl]cyclopropanesulfonamide-Isomer 2] was 1 to 10 µM.
The value for `Cc1cc(C)c(=O)n(C(CNS(=O)(=O)N(C)C)CO[C@H]2CC[C@@H](c3cccc(F)c3)CC2)c1` (single isomer, unassigned; isomer 2) [Example 2as, (S or R) 1-[1-[(dimethylsulfamoyl)amino]-3-{[(CIS)-4-(3-fluorophenyl)cyclohexyl]oxy}propan-2-yl]-3,5-dimethyl-1,2-dihydropyridin-2-one-Isomer 2] was 0.1 to 1 µM; that for `Cc1cc(C)c(=O)n(C(CNS(=O)(=O)CF)CO[C@H]2CC[C@@H](c3cccc(F)c3)CC2)c1` (single isomer, unassigned; isomer 2) [Example 2av, (S or R) N-[2-(3,5-dimethyl-2-oxo-1,2-dihydropyridin-1-yl)-3-{[(CIS)-4-(3-fluorophenyl)cyclohexyl]oxy}propyl]-1-fluoromethanesulfonamide-Isomer 2] was 0.1 to 1 µM.
The value for `CCc1cccn(C(CNS(C)(=O)=O)CO[C@H]2CC[C@@H](c3ccccc3)CC2)c1=O` (single isomer, unassigned; isomer 2) [Example 2b, (S or R) N-[2-(3-ethyl-2-oxo-1,2-dihydropyridin-1-yl)-3-{[(CIS)-4-phenylcyclohexyl]oxy}propyl]methanesulfonamide-Isomer 2] was 0.1 to 1 µM.
Turning to `Cc1cc(C)c(=O)n(C(CNS(C)(=O)=O)COC2CCN(c3ncc(F)cn3)CC2)c1` (single isomer, unassigned; isomer 2) [Example 2ba, (S or R) N-[2-(3,5-dimethyl-2-oxo-1,2-dihydropyridin-1-yl)-3-{[1-(5-fluoropyrimidin-2-yl)piperidin-4-yl]oxy}propyl]methanesulfonamide-Isomer 2], the half-maximal effective concentration (EC50) is greater than 10 µM.
As for `CS(=O)(=O)NCC(CO[C@H]1CC[C@@H](c2ccccc2)CC1)n1cccc(F)c1=O` (single isomer, unassigned; isomer 2) [Example 2h, (S or R) N-[2-(3-fluoro-2-oxo-1,2-dihydropyridin-1-yl)-3-{[(CIS)-4-phenylcyclohexyl]oxy}propyl]methanesulfonamide-Isomer 2], the figure is greater than 10 µM; as for `Cc1ccc(=O)n(C(CNS(C)(=O)=O)CO[C@H]2CC[C@@H](c3ccccc3)CC2)c1` (single isomer, unassigned; isomer 2) [Example 2k, (S or R) N-[2-(5-methyl-2-oxo-1,2-dihydropyridin-1-yl)-3-{[(CIS)-4-phenylcyclohexyl]oxy}propyl]methanesulfonamide-Isomer 2], greater than 10 µM; as for `Cc1ccn(C(CNS(C)(=O)=O)CO[C@H]2CC[C@@H](c3ccccc3)CC2)c(=O)c1C` (single isomer, unassigned; isomer 2) [Example 2o, (S or R) N-[2-(3,4-dimethyl-2-oxo-1,2-dihydropyridin-1-yl)-3-{[(CIS)-4-phenylcyclohexyl]oxy}propyl]methanesulfonamide-Isomer 2], greater than 10 µM.
As for `Cc1cc(C)c(=O)n(C(CNS(C)(=O)=O)CO[C@H]2CC[C@@H](c3ccccc3)CC2)c1` (single isomer, unassigned; isomer 2) [Example 2u, (S or R) N-[2-(3,5-dimethyl-2-oxo-1,2-dihydropyridin-1-yl)-3-{[(CIS)-4-phenylcyclohexyl]oxy}propyl]methanesulfonamide-Isomer 2], the figure is 1 to 10 µM; as for `Cc1cccn(C(CO[C@H]2CC[C@@H](c3ccccc3)CC2)C(C)NS(C)(=O)=O)c1=O` (single isomer, unassigned; isomer 2) [Example 3b, (2S or 2R) and (3S or 3R) N-[3-(3-methyl-2-oxo-1,2-dihydropyridin-1-yl)-4-{[(CIS)-4-phenylcyclohexyl]oxy}butan-2-yl]methanesulfonamide—Isomer 2], 1 to 10 µM.
